Results as given in patent publication US20210369677A1, “SMALL MOLECULE ACTIVATORS OF POLYCYSTIN-2 (PKD2) AND USES THEREOF” (Northwestern University, priority 2020, published 2021).

Target: T1, human polycystin-2 CTD EF hand (I704-P797) (Homo sapiens, UniProt Q13563)
T1 construct: The C-terminal fragment of the human polycystin-2 (I704-P797) was cloned into the PET19b vector; 10xHis (N); made in house; host or cells: E. coli BL21 (DE3)
T1 sequence (Q13563 704-797): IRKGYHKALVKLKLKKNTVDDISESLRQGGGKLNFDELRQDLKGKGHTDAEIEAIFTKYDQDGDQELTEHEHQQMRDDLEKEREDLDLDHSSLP
Test: Isothermal titration calorimetry of divalent ions into the CTD of polycystin-2
Format: binding
Conditions: 25° C; read-out: Ca2+ affinity (Kd) for WT human CTD EF hand
Method: CTD protein expression, purification, and isothermal titration calorimetry. The C-terminal fragment of the human polycystin-2 (I704-P797) was cloned into the PET19b vector and transformed into BL21 (DE3) competent cells (New England Biolabs) for bacterial expression. The translated peptide has a 10×His tag on its N-terminus. The alanine mutants of the individual calcium-coordinating residues were created and transformed as well. Cells were grown in 2XYT broth in a 37° C. shaking incubator until OD600 reaches ˜0.6, and were induced by 0.4 mM isopropyl 1-thio-β-D-galactopyranoside and grown for another 4 hours. Cells were harvested and resuspended in Buffer A (500 mM NaCl, 20 mM Tris/HCl, pH 7.4), 5% glycerol, 0.25 mM EDTA pH 8.0, 1 mM PMSF (RPI), 25 μg/ml of lysozyme and DNase I (GoldBio). The suspension was then lysed by sonication and clarified by centrifugation (30,000×g for 0.5 h). Filtered supernatant was loaded into a HisPur cobalt Superflow agarose column (ThermoScientific). The column was washed with 10 column volume (CV) of buffer A, 5 CV of buffer A+5 mM imidazole, and finally eluted with 3 CV of buffer A+100 mM imidazole. The eluate was desalted by dialysis in 150 mM NaCl, 20 mM Tris/HCl, 20 mM imidazole, pH 7.4. SDS-PAGE gel confirmed the expression, solubility, and purity of the peptide. All of our solutions were formulated with ultrapure water (Milli-Q® IQ 7005 water purification system), that has less than 0.29 ng/L calcium ions present. The binding affinity is recorded based on the heat difference between the sample cell and reference cell measured by MicroCal iTC200. […] The cells were insulated by an adiabatic jacket held at 25° C. The heat of dilution of Ca^2+ was not subtracted from data sets, as the signal was prohibitively small for several of the mutant channels. The exothermic energy of the bimolecular interaction between Ca^2+ and peptide during each injection was analyzed by integrating the change in heat to generate the binding isotherm. […]

In the case of `[Ca+2]` [Ca^2+, calcium], the Kd is reported as 19 ± 5 µM.
